≈ marks a conversion by molar mass, not a printed value.
Experiments:
[1] = test system: Candida albicans; experiment: microbe, parasite or virus in culture; details: ATCC 90028, ASSAY_TEST Inhibition of Fungal Growth, detection method Absorption (OD530), plate type 384well, NBS, CORNING #3640
Description: Antifungal activity against Candida albicans ATCC 90028 (CO-ADD:FG_001); MIC in YNB media using NBS plates, by OD630

[2] = test system: Klebsiella pneumoniae; experiment: microbe, parasite or virus in culture; details: ATCC 700603, 18 h, ASSAY_TEST Inhibition of Bacterial Growth, detection method Absorption (OD600), MEDIA CAMHB, plate type 384well, NBS, CORNING #3640
Description: Antibacterial activity against Klebsiella pneumoniae MDR ATCC 70063 (CO-ADD:GN_003); MIC in CAMBH media using NBS plates, by OD(600)

[3] = test system: Staphylococcus aureus; experiment: microbe, parasite or virus in culture; details: ATCC 43300, 18 h, ASSAY_TEST Inhibition of Bacterial Growth, detection method Absorption (OD600), MEDIA CAMHB, plate type 384well, NBS, CORNING #3640
Description: Antibacterial activity against Staphylococcus aureus MRSA ATCC 43300 (CO-ADD:GP_020); MIC in CAMBH media, using NBS plates, by OD(600)

[4] = test system: Cryptococcus neoformans
Description: Antifungal activity against Cryptococcus neoformans H99 ATCC 208821 (CO-ADD:FG_002); MIC in YNB media using NBS plates, by Resazurin OD(600-570)

[5] = test system: Pseudomonas aeruginosa; experiment: microbe, parasite or virus in culture; details: ATCC 27853, 18 h, ASSAY_TEST Inhibition of Bacterial Growth, detection method Absorption (OD600), MEDIA CAMHB, plate type 384well, NBS, CORNING #3640
Description: Antibacterial activity against Pseudomonas aeruginosa ATCC 27853 (CO-ADD:GN_042); MIC in CAMBH media using NBS plates, by OD(600)

[6] = test system: HEK293; experiment: cells; assay type: functional; details: Homo sapiens, ATCC CRL1573, HEK293; ASSAY_TEST Inhibition of Cell Viability; detection method Resazurin; Fluorescence (ex560/em590); MEDIA DMEM with 10% FBS; plate type 384well; TC; CORNING #3712; time 18 hr
[7] = test system: Acinetobacter baumannii; experiment: microbe, parasite or virus in culture; details: ATCC 19606, 18 h, ASSAY_TEST Inhibition of Bacterial Growth, detection method Absorption (OD600), MEDIA CAMHB, plate type 384well, NBS, CORNING #3640
Description: Antibacterial activity against Acinetobacter baumannii ATCC 19606 (CO-ADD:GN_034); MIC in CAMBH media using NBS plates, by OD600

[8] = test system: Escherichia coli; experiment: microbe, parasite or virus in culture; details: ATCC 25922, 18 h, ASSAY_TEST Inhibition of Bacterial Growth, detection method Absorption (OD600), MEDIA CAMHB, plate type 384well, NBS, CORNING #3640
Description: Antibacterial activity against Escherichia coli ATCC 25922 (CO-ADD:GN_001); MIC in CAMBH media using NBS plates, by OD(600)

SMILES	MIC [1] [µM]	MIC [2] [µM]	MIC [3] [µM]	MIC [4] [µM]	MIC [5] [µM]	CC50 [6] [µM]	MIC [7] [µM]	MIC [8] [µM]
O=C(Nc1ccc(Nc2ccncc2)cc1)c1ccc(Nc2ccnc3ccc([N+](=O)[O-])cc23)cc1[N+](=O)[O-]	> 10	> 10	> 10	> 10	> 10	> 10	> 10	> 10
Cc1cnc(SCc2ccc(Cl)cc2Cl)nc1O	> 10	> 10	> 10	> 10	> 10	> 10	> 10	> 10
COC(=O)C1C(O)C(C)C(O)C(C)/C=C\C=C(/C)C(=O)Nc2c(C)c(OC(C)=O)c3c(c2O)C(=O)C(C)=C2OCOC(=C23)/C(C)=C/C(C)(O)C(O)C(C)C1O (stereo not given)	> 10	> 10	1.25 (≈ 0.962 µg/mL)	> 10	> 10	9.11	> 10	> 10
Cc1ccc([S+]([O-])c2ccc([N+](=O)[O-])c3nonc23)cc1 (stereo not given)	> 10	> 10	> 10	> 10	> 10	> 10	> 10	> 10
Oc1cccc2nc3ccccc3nc12	> 10	> 10	> 10	> 10	> 10	> 10	> 10	> 10
N=C(Nc1nc(-c2ccccn2)cc2ccccc12)c1ccccn1	5 (≈ 1.63 µg/mL)	> 10	> 10	10 (≈ 3.25 µg/mL)	> 10	> 10	> 10	> 10
COC1CC2\C=C(C)/C=C/C=C/C(=O)NC(c3ccccc3)C/C=C/CCC(O)CC(=O)C2=C1O (stereo not given)	1.25 (≈ 0.597 µg/mL)	> 10	0.156 (≈ 0.0746 µg/mL)	5 (≈ 2.39 µg/mL)	> 10	2.08	> 10	> 10
O=C(Nc1ccc(C2=NCCN2)cc1)c1ccc(Cl)c(C(=O)Nc2ccc(C3=NCCN3)cc2)c1	> 10	> 10	> 10	> 10	> 10	> 10	> 10	> 10
CCCCOc1ccc(/N=N\c2ccc(N)nc2N)cn1	> 10	> 10	> 10	> 10	> 10	> 10	> 10	> 10
Cc1ccnc(NC(c2ccccc2)c2ccc3cccnc3c2O)c1 (stereo not given)	> 10	> 10	> 10	> 10	> 10	> 10	> 10	> 10
